Experimental findings from US9346849B2, “Amino sugar-bound anti-cancerous noble metal complex” (NATIONAL UNIVERSITY CORPORATION NARA INSTITUTE OF SCIENCE …, priority 2012, dated 2016) are described below.

What is called IC50 is the concentration that gives 50% inhibition. High values mean lower potency, low ones higher potency.

Type in all cases: cell-based
One experiment relates to MKN45. Briefly: Anticancer activity test (MTT viability), gastric cancer cell line MKN45. Particulars: for IC50: MKN45 (n=4), drug incubation 48 hours, MTT. The procedure: (§1) 1. Gastric cancer cell lines MKN28 and MKN45 were individually seeded in 96-well plates in duplicate at 1×10^3 cells/100 μL/well (a medium (RPMI1640) containing 10% FBS was used) and incubated at 37° C. and 5% CO2 for 68 hours.
(§2) 2. A preparation made by mixing a drug (CDDP ([PtCl2(NH3)2]) or Pd-Oqn) with the medium was dispensed into each well, and thereafter incubated at 37° C. and 5% CO2 for 48 hours.
(§3) 3. MTT was dispensed into each well at 10 μL/well, followed by incubation at 37° C. for 4 hours. Thereafter, the absorbance at 450 nm was measured with a microplate reader, and the viability was calculated.

The test system of a further experiment is Panc-1. In words: Anticancer activity test (MTT viability), pancreatic cancer cell line Panc-1. The note with it: for IC50: Panc-1 (n=4), drug incubation 48 hours, MTT. The procedure: 1. A pancreatic cancer cell line (Panc-1) was seeded in 96-well plates in duplicate at 1×10^3 cells/100 μL/well (a medium (RPMI1640) containing 10% FBS was used) and incubated at 37° C. and 5% CO2 for 68 hours.
as §2, §3

Another experiment deals with MKN28. In words: Anticancer activity test (MTT viability), gastric cancer cell line MKN28. The note with it: MKN28 (n=4), drug incubation 48 hours. Here is the method:
as §1, §2, §3

Regarding [Pd(GlcN=Oqn)Cl] [Pd-Oqn], the IC50 in the experiment on MKN45 was 11.7 µM; with Panc-1, 63.1 µM; with MKN28, 17.5 µM. The “anticancer activity (IC50) relative to cisplatin” value in the experiment with MKN45 (stomach cancer cells MKN45 and MKN28 together, versus cisplatin) was “about two to five times higher”; in the experiment on Panc-1 (Panc-1, versus cisplatin), “about two times higher”.

In the case of `N.N.[Cl][Pt][Cl]` [CDDP, [PtCl2(NH3)2], reference compound], the IC50 in the experiment with MKN45 amounted to 28.2 µM; with Panc-1 it was 124 µM; in the experiment with MKN28, 87.2 µM.
